Consider one molecule from US20100280986A1, “SYSTEMS AND METHODS FOR TAILORING ACUTE AND CHRONIC VIRAL INFECTION […] INCREASE THE P[…] "CURE" FOR A GIVEN SUBJECT” (Roche Palo Alto, priority 2009, published 2010).

This assay relates to HCV. Briefly: HCV viral kinetic population model (nonlinear mixed effects) fitted to long-term viral load profiles of 2100 CHC patients. The format is in vivo, human (patients).

Text: In an embodiment, a population model may account for the ribavirin effect, the natural turnover and proliferation of hepatocytes, and the viral eradication.
In this example, liver physiological/patho-physiology characteristics are incorporated into model 400, such as hepatocyte cell maturation (source s), death rate (death d), maximal liver size (Tmax). Model 400 can be parameterization in terms of a reproductive ratio (RR0) rather than cell infectivity (infection β). A “cure” boundary condition can be provided when a number of infected cells is predicted to be <=1.
HCV viral kinetic model 400 is extended with a density dependent proliferation of hepatocytes [r].
Infectious HCV virions (VI) infect target cells (uninfected hepatocytes) [T] creating productively infected cells (I) at a rate β·V1·T. Uninfected hepatocytes are produced at rate s and die at rate d. Infected hepatocytes die at rate δ. Infectious (VI) and non-infectious (VNI) virions are produced at rate p and cleared at rate c. The measured viral load (V) can be expressed in IU/mL, representing the sum of infectious and non-infectious virions V=VI+VN.
Continuing the example, DoseRBV is the daily dose of ribavirin per kg body weight and ED50RRV is the estimated daily dose in mg/kg rendering 40% of the virions non-infectious. […]

`NC(=O)c1ncn([C@@H]2O[C@H](CO)[C@@H](O)[C@H]2O)n1` [ribavirin]: the “ED50RBV (estimated daily dose rendering virions non-infectious)” value (population estimate, daily dose per kg body weight) is 14.4 mg˜kg^−1·day^−1. The “Fraction of the virions rendered non-infectious” value (standard ribavirin treatment of 1000/1200 mg per day) was 40-60%.
